Non-standard residues stand in square brackets, D forms with d. Residues, ends and D or L forms follow the SMILES beside them. pGlu = O=C1CC[C@@H](C(=O)O)N1; Thz = O=C(O)[C@@H]1CSCN1
Key:
[1] = parabacteroides distasonis, 12 h, 2 µM
[2] = The drug is tested on Dorea formicigenerans strain: ATCC27755 for biotransformation. The drug concentrations were measured before and after a 12-h incubation by liquid-chromatography-coupled mass spectrometry (LC–MS); settings: 2 µM
[3] = The drug is tested on Bacteroides vulgatus strain: ATCC8482 for biotransformation. The drug concentrations were measured before and after a 12-h incubation by liquid-chromatography-coupled mass spectrometry (LC–MS); settings: phocaeicola vulgatus, 2 µM
[4] = The drug is tested on Ruminococcus gnavus strain: ATCC29149 for biotransformation. The drug concentrations were measured before and after a 12-h incubation by liquid-chromatography-coupled mass spectrometry (LC–MS); settings: mediterraneibacter gnavus, 2 µM
[5] = The drug is tested on Coprococcus comes strain: ATCC27758 for biotransformation. The drug concentrations were measured before and after a 12-h incubation by liquid-chromatography-coupled mass spectrometry (LC–MS); format: ADME; set-up: dose 2 uM, timepoint 0 vs 12 hours; settings: 2 µM
[6] = The drug is tested on Bacteroides fragilis strain: HMW610 for biotransformation. The drug concentrations were measured before and after a 12-h incubation by liquid-chromatography-coupled mass spectrometry (LC–MS); settings: 2 µM
[7] = The drug is tested on Bacteroides pectinophilus strain: ATCC43243 for biotransformation. The drug concentrations were measured before and after a 12-h incubation by liquid-chromatography-coupled mass spectrometry (LC–MS); settings: 2 µM
[8] = The drug is tested on Providencia stuartii strain: ATCC25827 for biotransformation. The drug concentrations were measured before and after a 12-h incubation by liquid-chromatography-coupled mass spectrometry (LC–MS); settings: 2 µM
[9] = The drug is tested on Bacteroides coprophilus strain: DSM18228 for biotransformation. The drug concentrations were measured before and after a 12-h incubation by liquid-chromatography-coupled mass spectrometry (LC–MS); settings: 2 µM
[10] = akkermansia muciniphila, 12 h, 2 µM
[11] = The drug is tested on Enterobacter cancerogenus strain: ATCC35316 for biotransformation. The drug concentrations were measured before and after a 12-h incubation by liquid-chromatography-coupled mass spectrometry (LC–MS); settings: 2 µM
[12] = The drug is tested on Bacteroides cellulosilyticus strain: DSM14838 for biotransformation. The drug concentrations were measured before and after a 12-h incubation by liquid-chromatography-coupled mass spectrometry (LC–MS); settings: 2 µM
[13] = The drug is tested on Bacteroides fragilis strain: HMW615 for biotransformation. The drug concentrations were measured before and after a 12-h incubation by liquid-chromatography-coupled mass spectrometry (LC–MS); settings: 2 µM
[14] = parabacteroides johnsonii, 12 h, 2 µM
[15] = The drug is tested on Blautia hansenii strain: DSM20583 for biotransformation. The drug concentrations were measured before and after a 12-h incubation by liquid-chromatography-coupled mass spectrometry (LC–MS); settings: 2 µM
[16] = The drug is tested on Edwardsiella tarda strain: ATCC23685 for biotransformation. The drug concentrations were measured before and after a 12-h incubation by liquid-chromatography-coupled mass spectrometry (LC–MS); settings: 2 µM
[17] = enterocloster bolteae, 12 h, 2 µM
[18] = The drug is tested on Bacteroides xylanisolvens strain: DSM18836 for biotransformation. The drug concentrations were measured before and after a 12-h incubation by liquid-chromatography-coupled mass spectrometry (LC–MS); settings: 2 µM
[19] = bacteroides stercoris, 12 h, 2 µM
[20] = bacteroides intestinalis, 12 h, 2 µM

Measured: Bacterial Biotransformation

CCCCc1nc(Cl)c(CO)n1Cc1ccc(-c2ccccc2-c2nn[nH]n2)cc1 [LOSARTAN]
Compound NOT metabolized: [2] | [4] | [5] | [7] | [8] | [9] | [11] | [15] | [17]
Compound metabolized: [1] | [3] | [6] | [10] | [12] | [13] | [14] | [16] | [18]

O=C1CC[C@@H](C(=O)N2CSC[C@H]2C(=O)O)N1 [PIDOTIMOD] ([pGlu]-[Thz]-OH)
Compound metabolized: [1] | [6] | [19] | [9] | [13] | [14] | [15]
Compound NOT metabolized: [2] | [3] | [4] | [5] | [7] | [8] | [10] | [11] | [12] | [20] | [16] | [17]

C[C@]12C=CC(=O)C=C1CC[C@@H]1[C@@H]2C(=O)C[C@@]2(C)[C@H]1CC[C@]2(O)C(=O)CO [PREDNISONE]
Compound NOT metabolized: [1] | [2] | [3] | [4] | [5] | [6] | [7] | [8] | [9] | [10] | [11] | [12] | [13] | [20] | [14] | [15] | [16] | [17] | [18]

Nc1nc2ccc(OC(F)(F)F)cc2s1 [RILUZOLE]
Compound metabolized: [1] | [6] | [19] | [13] | [15] | [18]
Compound NOT metabolized: [2] | [3] | [4] | [7] | [8] | [9] | [10] | [11] | [12] | [20] | [14] | [16] | [17]

CC(C)NCC(O)c1ccc(NS(C)(=O)=O)cc1 (configuration not stated) [SOTALOL]
Compound NOT metabolized: [1] | [2] | [3] | [4] | [5] | [19] | [7] | [8] | [10] | [11] | [12] | [14] | [15] | [16] | [17] | [18]
Compound metabolized: [6] | [13]

O=C1C(CC[S+]([O-])c2ccccc2)C(=O)N(c2ccccc2)N1c1ccccc1 (configuration not stated) [SULFINPYRAZONE]
Compound NOT metabolized: [1] | [2] | [3] | [4] | [5] | [19] | [7] | [8] | [9] | [10] | [12] | [14] | [15] | [16] | [17]
Compound metabolized: [6] | [11] | [13] | [18]

— ChEMBL document CHEMBL5303573, “Mapping human microbiome drug metabolism by gut bacteria and their genes” (Nature, 2019)
